Where two headings read alike, the source gives them in different places.
What was measured:
[1] = molecular target: amyloid-β peptides (Aβ1-40, Aβ1-36, Aβ1-28, Flag-Aβ25-36) (Homo sapiens, UniProt P05067); assay: Photoaffinity labelling of amyloid-β peptides; format: binding
Description: (§1) FIG. 1. […] The top panel is for anti-biotin staining; the middle panel is for anti-FLAG staining; and the bottom panel is an overlay of anti-biotin (red and anti-Flag green, LiCor Odyssey imaging). (E) Same samples as in D, but analyzed using an ELISA. Following crosslinking, C100Flag and N100 Flag were captured using anti-FLAG plate, and biotin incorporation was measured using streptavidin-HRP. […] Fen-B (50 μM) was crosslinked to Aβ (10 μM). Biotin labeling was measured following capture with an anti-Aβ1-16 antibody and detection with streptavidin-HRP.
(§2) Photoaffinity labelling. All experiments used the following general protocol. Samples (recombinant or synthetic peptides, cell lysates and membrane preparations) were exposed in borosilicate test tubes to ultraviolet light (350 nm) in a Rayonet Photoreactor R100 (RPR-3500 lamps, Southern New England Ultra Violet Company) in a cold room (4° C.) for 30 minutes or as otherwise noted. Crosslinked samples were analyzed by ELISA for biotin incorporation, or analyzed directly by SDS-PAGE (Criterion-XT, Bio-Rad), or after precipitation with streptavidin ultralink plus beads (Pierce). After immunblotting, proteins were detected using chemiluminesence (ECL Plus, GEHealthcare) or near-infrared fluorescence (LiCor Odyssey). Full-length APP and APP CTFs (CTF83, CTF99) were detected with CT20, a rabbit polyclonal antibody against the C-terminus of APP. Biotin was detected with an affinity-purified rabbit polyclonal antibody (Bethyl). Cell-based screens for amyloid-β modulation. Human H4 neuroglioma cells (American Type Culture Collection, ATCC) expressing wild-type APP695 protein or CTF105 fused to secreted alkaline phosphatase which is efficiently processed to APP CTFs (CTF83, CTF99) and produce high levels of amyloid-β, were used for the cell-based screens as previously described. Cells were incubated for 5-6 hours in the presence of the various compounds in Opti-Mem culture medium containing 1% fetal bovine serum. Compounds were dissolved in dimethylsulphoxide (DMSO; 0.5% final concentration) and diluted 200-fold. Media was analyzed for various amyloid-β species (40, 42 and total) using ELISAs as described herein. The EC50 values for changes in amyloid-β species were calculated by fitting sigmoid dose-response curves using nonlinear regression in Prism (GraphPad) and are shown as values±s.e.m. Statistical analysis. Data are presented as either percentage control or mean±s.e.m. Results were analyzed using Prism (Graph Pad) with t-tests or one-way analysis of variance analyses (ANOVAs) with Dunnett's post-hoc correction for comparison of multiple samples to a control. Statistical significance is shown as P,0.05 (one asterisk), P,0.01 (two asterisks) or P,0.001 (three asterisks).
Because the putative binding region of GSMs is also found in full-length APP, labeling of both APP fragments in cells was assayed.

[2] = tested on: H4Bri-C99 (CTF-3)
Description: FIG. 6. […] Parent GSMs and biotin tagged photoactivatable GSMs were evaluated for their effects on Aβ secreted from H4Bri-C99 (CTF-3). Cells were treated with compounds for 6 hours and Aβ measured by ELISA. […] Changes in Aβ (percent control)±s.e.m., n=3.
as §2

[3] = tested on: Human H4 neuroglioma cells expressing wild-type APP695 protein or CTF105; assay: Cell-based screens for amyloid-β modulation (H4 cells, ELISA); details: for Aβ42 levels: H4 cells expressing APP
Source text: Photoaffinity labelling. All experiments used the following general protocol. […] Cell-based screens for amyloid-β modulation. […] Statistical analysis.

[4] = molecular target: T1, APP-CTF (Homo sapiens, UniProt P05067); assay: Photoaffinity labelling of APP and APP CTF in H4 cell membrane fractions and competition; format: binding; details: for competition of APP-CTF labeling by Fen-B and Flurbi-BpB: photoprobe 25 μM, competitor 200 μM
T1 construct: this protein was designated α-secretase-derived APP CTF (CTF83) on the basis of molecular weight; expressed in transfected cells
Description: Photoaffinity labelling. All experiments used the following general protocol. Samples (recombinant or synthetic peptides, cell lysates and membrane preparations) were exposed in borosilicate test tubes to ultraviolet light (350 nm) in a Rayonet Photoreactor R100 (RPR-3500 lamps, Southern New England Ultra Violet Company) in a cold room (4° C.) for 30 minutes or as otherwise noted. Crosslinked samples were analyzed by ELISA for biotin incorporation, or analyzed directly by SDS-PAGE (Criterion-XT, Bio-Rad), or after precipitation with streptavidin ultralink plus beads (Pierce). After immunblotting, proteins were detected using chemiluminesence (ECL Plus, GEHealthcare) or near-infrared fluorescence (LiCor Odyssey). Full-length APP and APP CTFs (CTF83, CTF99) were detected with CT20, a rabbit polyclonal antibody against the C-terminus of APP. Biotin was detected with an affinity-purified rabbit polyclonal antibody (Bethyl). Cell-based screens for amyloid-β modulation.

[5] = molecular target: T2, APP(C100)-Flag (Homo sapiens, UniProt P05067); assay: Photoaffinity labelling of APP(C100)-Flag and competition; format: binding; details: for competition of Fen-B labeling of C100Flag: Fen-B 10 μM, C100Flag 1 μM, competitor 100 μM
T2 construct: APP(C100)-Flag, comprising the 99 C-terminal residues of APP plus a methionine at the N-terminus; added methionine (N)
Description: as §1, §2
The ability of a purified, recombinant Flag-tagged γ-secretase substrate derived from APP (APP(C100)-Flag, comprising the 99 C-terminal residues of APP plus a methionine at the N-terminus) to be labeled by Fen-B and Flurbi-BpB was tested.

[6] = molecular target: T3, γ-secretase (Homo sapiens, UniProt P49768); assay: GSM activity of compounds that bind Aβ or Aβ amyloid (cell-based or cell-free γ-secretase assays, FIG. 12); details: two doses (10 and 100 μM)
Description: A literature search was performed to identify compounds reported to bind to the Aβ peptide directly or amyloid. These candidates were initially tested in cell-based assays or cell-free in vitro γ-secretase assays at two doses (10 and 100 μM).
Finally, X-34 was tested for its ability to modulate Aβ42 amounts in an APP transgenic mouse (Tg2576).

[7] = tested on: H4 APPwt cells; assay: Immunoprecipitation-mass spectrometry of media from H4 APPwt cells; format: cell-based, human
Description: FIG. 14. Amyloid binding compounds alter the cleavage of Aβ similar to other established γ-secretase modulators Immunoprecipitation-mass spectrometry studies were conducted on media from H4 APPwt cells grown in the presence of test compounds for 16 hours. Conditions were: control (DMSO, 0.5%), sulindac sulfide (SS; 25 μM), chrysamine g (CG; 25 μM), and X-34 (25 μM). SS was included as a control GSM known to reduce Aβ42 and increase Aβ38. Spectra shown are representative of two experiments with 2-3 replicates each. Identified Aβ peptides based on calculated mass (m/z) are indicated above the peaks.

[8] = molecular target: T3, γ-secretase; assay: Cell-free in vitro γ-secretase assay; format: biochemical; details: for Aβ40 in cell-free γ-secretase assay / total Aβ production in cell-free γ-secretase assay: increasing doses
Description: FIG. 5. Fenofibrate-Biotin (Fen-B) is an Aβ42 raising GSM that labels cell-derived APP-CTF. (A) The effects of fenofibrate and fenofibrate-biotin (Fen-B) on Aβ production were investigated in a cell-free in vitro γ-secretase assay performed as described in the methods. […] Percent control Aβ species±s.e.m., n=2. (B) Fen-B labels APP-CTFs from cells lysates. CHAPSO solubilized membrane fractions from H4 APP-CTF-105-AP cells were irradiated (350 nm) in the presence of Fen-B (50 μM) for 30 minutes. Biotinylated material was precipitated with streptavidin overnight (SAv). Beads were washed (3×) and then incubated with XT sample buffer, heated to 95° C., run on 12% Criterion XT gels, and transferred to nitrocellulose membranes. Blots were probed for biotin (Bethyl) and APP (CT20). Excess drug (Fen-B) and unlableled APP-CTF is detected in the flow-through from the beads (unbound lane). Biotin bound to streptavdin (SAv) is detected by the anti-biotin antibody. APP-CTF-83 is pulled down in lane 2 and is reactive with anti-biotin and anti-APP (CT20).
Congo red (CR) and chrysamine G (CG), two of the most well characterized amyloid-β dyes, act as GSMs in cell-free γ-secretase assays.

T1 sequence (P05067 688-770 limits assumed): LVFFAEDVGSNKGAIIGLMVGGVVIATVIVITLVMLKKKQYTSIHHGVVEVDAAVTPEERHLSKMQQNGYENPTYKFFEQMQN
T2 sequence (P05067 672-770 limits assumed): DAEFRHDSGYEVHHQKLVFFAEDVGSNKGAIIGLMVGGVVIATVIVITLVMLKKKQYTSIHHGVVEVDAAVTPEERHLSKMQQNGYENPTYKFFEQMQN

## O=C(CCCC[C@H]1SC[C@H]2NC(=O)N[C@H]21)NCCNC(=O)COc1ccc(C(=O)c2ccccc2)cc1 [BpB, N-(2-(2-(4-benzoylphenoxy)acetamido)ethyl)-5-((3aR,4R,6aS)-2-oxohexahydro-1Hthieno[3,4-d]imidazol-4-yl)pentanamide]
[1]
  labeling of Aβ1-36: minor labelling
[2]; 6 hours
  Aβ42 (direction of change): increased Aβ42

## NH2-FEGKF-CONH2 [I1]
[3]
  total amyloid-β amounts: without lowering total amyloid-β amounts
  Aβ42 levels: elevated Aβ42 production

## Aβ28-36: synthetic peptide of the putative GSM binding region (KGAIIGLMV; Amyloid-beta protein 42; UniProt P05067 699-707, looked up, fragment)
[1]; competitor 100 μM, FLAG-Aβ-25-36 10 μM
  competition for labeling of FLAG-Aβ-25-36 by Fen-B or Flurbi-BpB: competes
[4]
  competition of APP-CTF labeling by Fen-B and Flurbi-BpB: decreases labeling of APP-CTF

## CC(C)OC(=O)C(C)(C)Oc1ccc(C(=O)c2ccc(Cl)cc2)cc1 [fenofibrate]
[2]; 33 μM, 6 hours
  Aβ42 increase: 300%
[2]; human, 6 h
  Toxicity, based on cell morphology and XTT assay: noted at higher concentrations (150, 200 μM)

## CC(=O)Oc1ccccc1C(=O)O [aspirin]
[5]
  competition of Fen-B labeling of C100Flag: did not compete

## CC(C(=O)O)c1ccc(-c2ccc(NC(=O)COc3ccc(C(=O)c4ccc(OCC(=O)NCCNC(=O)CCCC[C@H]5SC[C@H]6NC(=O)N[C@H]65)cc4)cc3)cc2)c(F)c1 (stereo in doubt) [Flurbi-BpB, 2-(2-fluoro-4′-(2-(4-(4-(2-oxo-2-(2-(5-((3aR,4R,6aS)-2-oxohexahydro-1H-thieno[3,4-d]imidazol-4 yl)pentanamido)ethylamino)ethoxy)benzoyl)phenoxy)acetamido)biphenyl-4-yl)propanoic acid]
[1]
  labeling of Aβ1-36: labeled
  labeling of Flag-tagged Aβ25-36: preferentially label
[4]; microsomal membrane fractions from H4 cells expressing wild-type APP
  labeling of full-length APP and APP CTFs: labeled full-length APP and APP CTFs
[5]
  labeling of APP(C100)-Flag: label a recombinant APP c-secretase substrate (APP(C100)-Flag) with similar potency
[2]; 6 hours
  Aβ42 (direction of change): lowered Aβ42

## CNc1ccc(-c2nc3ccccc3s2)cc1 [BTA-1]
[6]
  GSM activity: did not act as GSMs

## COc1ccc2[nH]cc(CCNC(C)=O)c2c1 [melatonin]
[6]
  GSM activity: did not act as GSMs

## O=C(c1ccccc1)c1ccccc1 [benzophenone]
[2]; 6 hours
  Aβ42 (direction of change): increased Aβ42

## O=C(O)CCCC[C@@H]1SC[C@@H]2NC(=O)N[C@@H]21 [Biotin]
[2]; 6 hours
  Aβ levels: no effect

## COc1ccc2cc([C@H](C)C(=O)O)ccc2c1 [naproxen]
[5]
  competition of Fen-B labeling of C100Flag: did not compete

## CC1=C(CC(=O)O)c2cc(F)ccc2/C1=C\c1ccc(S(C)(=O)=O)cc1 [sulindac sulfone]
[5]
  competition of Fen-B labeling of C100Flag: not

## Clc1ccc(C(c2ccc(Cl)cc2)n2cc[n+](CC(OCc3ccc(Cl)cc3Cl)c3ccc(Cl)cc3Cl)c2)cc1 (centres unmarked) [calmidazolium]
[6]
  GSM activity: Aβ42-raising

## CSc1ccc(/C=C2/C(C)=C(CC(=O)O)c3cc(F)ccc32)cc1 [sulindac sulfide]
[7]; 25 μM, 16 hours
  levels of Aβ42 (IP-MS): consistently decrease levels of Aβ42
[8]
  Aβ42 in cell-free γ-secretase assay: lowered Aβ42 levels
  Aβ40 in cell-free γ-secretase assay: lowered Aβ40 at higher doses
  total Aβ production in cell-free γ-secretase assay: without decreasing total Aβ production
[4]
  competition of APP-CTF labeling by Fen-B and Flurbi-BpB: decreases labeling of APP-CTF
[4]; photoprobes 50 μM, data not shown
  competition of FL-APP and APP CTF labeling by Fen-B and Flurbi-BpB: prevents labeling of FL-APP and APP CTF

## O=C(O)c1cc(/N=N/c2ccc(-c3ccc(/N=N/c4ccc(O)c(C(=O)O)c4)cc3)cc2)ccc1O [Chrysamine G]
[7]
  shorter amyloid-β (IP-MS): increased amounts of shorter amyloid-β
[7]; 25 μM, 16 hours
  Aβ33 levels (IP-MS): raise Aβ33 levels more effectively than SS
  levels of Aβ42 (IP-MS): consistently decrease levels of Aβ42
[8]
  Aβ42 in cell-free γ-secretase assay: lowered Aβ42 selectively
  Aβ40 in cell-free γ-secretase assay: lowered Aβ40 at higher doses
  total Aβ production in cell-free γ-secretase assay: without decreasing total Aβ production
[8]; listed as CG
  Aβ42 in cell-free γ-secretase assay: lowered Aβ42 levels
[3]
  Aβ42 levels: decrease

## Nc1c(/N=N/c2ccc(-c3ccc(/N=N/c4cc(S(=O)(=O)O)c5ccccc5c4N)cc3)cc2)cc(S(=O)(=O)O)c2ccccc12 [Congo red]
[8]
  Aβ42 in cell-free γ-secretase assay: lowered Aβ42 selectively
  total Aβ production in cell-free γ-secretase assay: without decreasing total Aβ production
[8]; listed as CR
  Aβ42 in cell-free γ-secretase assay: lowered Aβ42 levels

— patent publication US20110021471A1, “REDUCING Abeta42 LEVELS AND Abeta AGGREGATION” (priority 2007, published 2011)
